Active and inactive are the calls of the source.
Tests used:
[1] = biological target: T1, Neuropeptide Y receptor type 2 (Homo sapiens, UniProt P49146); experiment: Fluorescence-based counterscreen for agonists of NPY-Y1: cell-based high-throughput dose response assay for agonists of NPY-Y2.; type: functional
T1 sequence (P49146 whole entry): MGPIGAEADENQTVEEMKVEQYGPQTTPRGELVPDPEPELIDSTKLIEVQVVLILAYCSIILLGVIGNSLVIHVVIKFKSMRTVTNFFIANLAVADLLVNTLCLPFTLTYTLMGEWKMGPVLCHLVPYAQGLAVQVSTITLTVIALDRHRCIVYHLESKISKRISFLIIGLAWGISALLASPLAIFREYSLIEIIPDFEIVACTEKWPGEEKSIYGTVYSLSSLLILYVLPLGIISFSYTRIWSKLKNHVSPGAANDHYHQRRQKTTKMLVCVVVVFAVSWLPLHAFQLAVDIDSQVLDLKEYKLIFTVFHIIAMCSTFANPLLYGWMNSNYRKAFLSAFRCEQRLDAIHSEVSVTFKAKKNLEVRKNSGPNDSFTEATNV

HEK293 = experiment: Fluorescence-based counterscreen for potentiators or agonists of NPY-Y1: cell-based high-throughput dose response assay for inhibitors of cyclic nucleotide gated ion channel (CNGC) activity. In this assay, the parental HEK293 cell line transfected with a cyclic-nucleotide gated ion channel (CNGC)-based cAMP sensor is used to measure inhibition of isoproterenol-induced CNGC …; type: functional; settings: Homo sapiens
[2] = biological target: T2, Neuropeptide Y receptor type 1 (Homo sapiens, UniProt P25929); experiment: Fluorescence-based dose response cell-based high-throughput screening assay for agonists of NPY-Y1. [Related pubchem assays: 1697 (Screening assay (NPY-Y1 agonists).), 1359 (Screening assay (NPY-Y2 potentiators or agonists).), 1304 (Screening assay (NPY-Y1 potentiators or agonists).), 1704 (Screening assay (CNGC inhibitors).), 1791 (Summary AID.)]; type: functional
T2 sequence (P25929 whole entry): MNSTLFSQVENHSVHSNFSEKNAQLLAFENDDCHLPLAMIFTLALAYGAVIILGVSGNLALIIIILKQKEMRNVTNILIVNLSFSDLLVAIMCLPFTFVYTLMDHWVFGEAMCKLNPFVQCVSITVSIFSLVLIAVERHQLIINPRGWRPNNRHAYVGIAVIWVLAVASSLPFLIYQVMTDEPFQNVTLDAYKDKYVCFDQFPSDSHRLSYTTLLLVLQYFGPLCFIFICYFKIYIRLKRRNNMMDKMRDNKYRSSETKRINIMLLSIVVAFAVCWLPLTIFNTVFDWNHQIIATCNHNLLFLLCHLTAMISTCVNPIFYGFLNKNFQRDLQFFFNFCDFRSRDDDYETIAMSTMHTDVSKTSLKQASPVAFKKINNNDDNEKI

[3] = luciferase reporter signal suppression in cells – H4 neuroglioma cells, luminescence, dose response (AID 1990); type: functional, cell-based
[4] = luciferase reporter signal reduction – luminescence, H4-C neuroglioblastoma cells, dose response (AID 2458); type: functional, cell-based;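 also: H4 neuroglioblastoma cells stably carrying a luciferase reporter gene fusion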
cells = type: functional, cell-based
[5] = alpha-synuclein stem-loop luciferase translation blockers – H4 neuroglioma cells, luminescence, confirmation (AID 1988); type: functional, cell-based
[6] = alpha-synuclein stem-loop translation blockers – luminescence, H4 neuroglioblastoma cells, dose confirmation, confirmation (AID 2454); type: functional, cell-based;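 also: H4 neuroglioblastoma cells carrying an alpha-synuclein 5'UTR luciferase reporter; potency for inhibition of the luciferase signal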
[7] = biological target: Photoreceptor-specific nuclear receptor (Homo sapiens, UniProt Q9Y5X4); type: functional;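 also: potency for compounds that break the NR2E3 corepressor complex and count as activators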
[8] = biological target: Peroxisome proliferator-activated receptor gamma/Nuclear receptor corepressor 2 (Homo sapiens, UniProt P37231+Q9Y618); type: functional
[9] = biological target: Transitional endoplasmic reticulum ATPase (Homo sapiens, UniProt P55072, C522A); experiment: C522A mutant p97 ATPase inhibitors, dose response, counter-screen for p97 inhibitor project, biochemical, luminescence (AID 1544)
[10] = biological target: Transitional endoplasmic reticulum ATPase (Homo sapiens, UniProt P55072); experiment: p97 ATPase inhibitors, dose response, biochemical (AID 1534)
[11] = biological target: T3, Microphthalmia-associated transcription factor (Homo sapiens, UniProt O75030); experiment: reducers of TRPM1 reporter luminescence, concentration series – cell-based, SK-MEL-5, cherry-picked, set 3, MITF inhibitor project, dose response (AID 493073); type: functional;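 also: SK-MEL-5 melanoma cells with luciferase driven by the MITF target TRPM1 promoter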
T3 sequence (O75030 whole entry): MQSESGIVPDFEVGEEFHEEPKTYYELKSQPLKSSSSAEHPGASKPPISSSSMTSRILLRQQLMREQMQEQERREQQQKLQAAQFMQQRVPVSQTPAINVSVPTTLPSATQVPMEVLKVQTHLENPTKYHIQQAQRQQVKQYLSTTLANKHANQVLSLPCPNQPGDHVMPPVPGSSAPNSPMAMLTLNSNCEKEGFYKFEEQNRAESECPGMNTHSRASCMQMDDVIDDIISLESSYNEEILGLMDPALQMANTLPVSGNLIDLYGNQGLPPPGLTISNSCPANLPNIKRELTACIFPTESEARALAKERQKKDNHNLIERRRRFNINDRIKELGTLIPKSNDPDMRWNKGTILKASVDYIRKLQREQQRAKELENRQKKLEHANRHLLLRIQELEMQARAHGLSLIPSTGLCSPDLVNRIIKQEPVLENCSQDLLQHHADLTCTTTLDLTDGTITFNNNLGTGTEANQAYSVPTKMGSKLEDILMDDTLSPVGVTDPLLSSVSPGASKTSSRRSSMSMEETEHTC

[12] = biological target: G2/mitotic-specific cyclin-B1 (Homo sapiens, UniProt P14635); experiment: Counterscreen assay for inhibitors of Wee1 degradation: dose response cell-based assay to identify inhibitors of cyclin B degradation. [Related pubchem assays: 1410, 1321 ]; type: functional
Wee1-like protein kinase = Wee1-like protein kinase (Homo sapiens, UniProt P30291); experiment: Dose Response Cell-based Assay for Inhibitors of Wee1 Degradation. [Related pubchem assays: 1410, 1321 ]; type: functional
Chain of Wee1-like protein kinase (P30291 whole entry): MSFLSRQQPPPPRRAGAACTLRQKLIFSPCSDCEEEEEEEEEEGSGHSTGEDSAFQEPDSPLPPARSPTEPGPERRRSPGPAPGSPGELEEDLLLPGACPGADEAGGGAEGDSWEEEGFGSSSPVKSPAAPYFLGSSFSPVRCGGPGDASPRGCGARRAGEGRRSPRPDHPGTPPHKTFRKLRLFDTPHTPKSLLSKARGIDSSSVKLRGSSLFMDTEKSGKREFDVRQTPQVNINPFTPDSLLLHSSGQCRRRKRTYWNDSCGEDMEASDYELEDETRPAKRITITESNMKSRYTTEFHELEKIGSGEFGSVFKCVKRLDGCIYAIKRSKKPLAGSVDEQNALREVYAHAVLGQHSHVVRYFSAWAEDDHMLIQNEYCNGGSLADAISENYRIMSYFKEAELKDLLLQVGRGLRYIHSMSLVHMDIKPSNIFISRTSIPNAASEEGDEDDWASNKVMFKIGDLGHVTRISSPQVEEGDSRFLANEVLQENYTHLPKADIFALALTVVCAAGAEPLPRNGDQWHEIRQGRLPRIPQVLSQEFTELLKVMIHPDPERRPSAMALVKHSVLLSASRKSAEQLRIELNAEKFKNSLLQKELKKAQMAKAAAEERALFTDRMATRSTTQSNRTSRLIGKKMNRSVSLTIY

Chain of Transitional endoplasmic reticulum ATPase (Homo sapiens, UniProt P55072) (P55072 whole entry): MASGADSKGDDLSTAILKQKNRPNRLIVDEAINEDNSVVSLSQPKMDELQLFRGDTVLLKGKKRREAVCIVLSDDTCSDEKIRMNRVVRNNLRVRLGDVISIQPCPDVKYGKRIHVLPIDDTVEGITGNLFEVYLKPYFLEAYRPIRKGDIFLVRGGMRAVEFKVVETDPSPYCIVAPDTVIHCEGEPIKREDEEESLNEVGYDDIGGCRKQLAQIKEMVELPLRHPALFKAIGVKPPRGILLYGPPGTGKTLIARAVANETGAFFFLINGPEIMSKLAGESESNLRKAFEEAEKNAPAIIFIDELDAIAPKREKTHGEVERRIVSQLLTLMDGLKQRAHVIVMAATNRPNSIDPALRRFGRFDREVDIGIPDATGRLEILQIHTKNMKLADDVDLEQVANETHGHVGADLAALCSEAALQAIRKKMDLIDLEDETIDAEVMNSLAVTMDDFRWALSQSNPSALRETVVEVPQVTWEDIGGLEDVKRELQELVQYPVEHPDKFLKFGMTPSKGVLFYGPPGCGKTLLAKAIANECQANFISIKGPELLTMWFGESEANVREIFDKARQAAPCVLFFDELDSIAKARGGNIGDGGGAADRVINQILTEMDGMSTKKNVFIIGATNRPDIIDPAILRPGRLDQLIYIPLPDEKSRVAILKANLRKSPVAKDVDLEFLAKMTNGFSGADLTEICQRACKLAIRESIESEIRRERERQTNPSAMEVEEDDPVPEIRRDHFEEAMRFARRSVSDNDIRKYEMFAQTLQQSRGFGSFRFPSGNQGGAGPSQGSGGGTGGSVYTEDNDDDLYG
Chain of Photoreceptor-specific nuclear receptor (Q9Y5X4 whole entry): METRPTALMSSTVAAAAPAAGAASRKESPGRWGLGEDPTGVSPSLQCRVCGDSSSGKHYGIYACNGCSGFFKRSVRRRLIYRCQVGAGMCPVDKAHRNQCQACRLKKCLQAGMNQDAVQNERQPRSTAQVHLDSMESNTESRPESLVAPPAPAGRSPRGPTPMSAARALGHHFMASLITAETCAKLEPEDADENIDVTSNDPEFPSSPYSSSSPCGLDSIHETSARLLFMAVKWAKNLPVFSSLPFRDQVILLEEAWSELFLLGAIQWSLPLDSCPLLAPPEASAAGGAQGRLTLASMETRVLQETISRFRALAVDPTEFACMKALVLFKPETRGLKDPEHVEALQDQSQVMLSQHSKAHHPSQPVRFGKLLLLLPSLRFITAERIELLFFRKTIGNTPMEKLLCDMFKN
Chain of Peroxisome proliferator-activated receptor gamma/Nuclear receptor corepressor 2 (P37231 whole entry): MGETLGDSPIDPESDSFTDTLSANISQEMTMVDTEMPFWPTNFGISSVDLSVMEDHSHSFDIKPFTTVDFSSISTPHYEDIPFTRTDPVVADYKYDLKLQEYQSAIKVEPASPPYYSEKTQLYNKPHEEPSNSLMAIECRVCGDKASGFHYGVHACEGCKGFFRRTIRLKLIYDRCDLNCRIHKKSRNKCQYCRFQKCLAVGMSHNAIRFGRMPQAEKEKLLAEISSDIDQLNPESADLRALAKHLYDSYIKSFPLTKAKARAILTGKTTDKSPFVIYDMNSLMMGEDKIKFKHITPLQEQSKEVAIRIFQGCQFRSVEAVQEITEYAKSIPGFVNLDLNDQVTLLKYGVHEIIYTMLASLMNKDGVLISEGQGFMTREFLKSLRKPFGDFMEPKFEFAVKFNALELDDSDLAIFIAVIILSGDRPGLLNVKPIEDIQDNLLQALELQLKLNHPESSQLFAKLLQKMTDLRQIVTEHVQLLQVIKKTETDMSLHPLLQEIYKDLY
Chain of Peroxisome proliferator-activated receptor gamma/Nuclear receptor corepressor 2 (Q9Y618 whole entry): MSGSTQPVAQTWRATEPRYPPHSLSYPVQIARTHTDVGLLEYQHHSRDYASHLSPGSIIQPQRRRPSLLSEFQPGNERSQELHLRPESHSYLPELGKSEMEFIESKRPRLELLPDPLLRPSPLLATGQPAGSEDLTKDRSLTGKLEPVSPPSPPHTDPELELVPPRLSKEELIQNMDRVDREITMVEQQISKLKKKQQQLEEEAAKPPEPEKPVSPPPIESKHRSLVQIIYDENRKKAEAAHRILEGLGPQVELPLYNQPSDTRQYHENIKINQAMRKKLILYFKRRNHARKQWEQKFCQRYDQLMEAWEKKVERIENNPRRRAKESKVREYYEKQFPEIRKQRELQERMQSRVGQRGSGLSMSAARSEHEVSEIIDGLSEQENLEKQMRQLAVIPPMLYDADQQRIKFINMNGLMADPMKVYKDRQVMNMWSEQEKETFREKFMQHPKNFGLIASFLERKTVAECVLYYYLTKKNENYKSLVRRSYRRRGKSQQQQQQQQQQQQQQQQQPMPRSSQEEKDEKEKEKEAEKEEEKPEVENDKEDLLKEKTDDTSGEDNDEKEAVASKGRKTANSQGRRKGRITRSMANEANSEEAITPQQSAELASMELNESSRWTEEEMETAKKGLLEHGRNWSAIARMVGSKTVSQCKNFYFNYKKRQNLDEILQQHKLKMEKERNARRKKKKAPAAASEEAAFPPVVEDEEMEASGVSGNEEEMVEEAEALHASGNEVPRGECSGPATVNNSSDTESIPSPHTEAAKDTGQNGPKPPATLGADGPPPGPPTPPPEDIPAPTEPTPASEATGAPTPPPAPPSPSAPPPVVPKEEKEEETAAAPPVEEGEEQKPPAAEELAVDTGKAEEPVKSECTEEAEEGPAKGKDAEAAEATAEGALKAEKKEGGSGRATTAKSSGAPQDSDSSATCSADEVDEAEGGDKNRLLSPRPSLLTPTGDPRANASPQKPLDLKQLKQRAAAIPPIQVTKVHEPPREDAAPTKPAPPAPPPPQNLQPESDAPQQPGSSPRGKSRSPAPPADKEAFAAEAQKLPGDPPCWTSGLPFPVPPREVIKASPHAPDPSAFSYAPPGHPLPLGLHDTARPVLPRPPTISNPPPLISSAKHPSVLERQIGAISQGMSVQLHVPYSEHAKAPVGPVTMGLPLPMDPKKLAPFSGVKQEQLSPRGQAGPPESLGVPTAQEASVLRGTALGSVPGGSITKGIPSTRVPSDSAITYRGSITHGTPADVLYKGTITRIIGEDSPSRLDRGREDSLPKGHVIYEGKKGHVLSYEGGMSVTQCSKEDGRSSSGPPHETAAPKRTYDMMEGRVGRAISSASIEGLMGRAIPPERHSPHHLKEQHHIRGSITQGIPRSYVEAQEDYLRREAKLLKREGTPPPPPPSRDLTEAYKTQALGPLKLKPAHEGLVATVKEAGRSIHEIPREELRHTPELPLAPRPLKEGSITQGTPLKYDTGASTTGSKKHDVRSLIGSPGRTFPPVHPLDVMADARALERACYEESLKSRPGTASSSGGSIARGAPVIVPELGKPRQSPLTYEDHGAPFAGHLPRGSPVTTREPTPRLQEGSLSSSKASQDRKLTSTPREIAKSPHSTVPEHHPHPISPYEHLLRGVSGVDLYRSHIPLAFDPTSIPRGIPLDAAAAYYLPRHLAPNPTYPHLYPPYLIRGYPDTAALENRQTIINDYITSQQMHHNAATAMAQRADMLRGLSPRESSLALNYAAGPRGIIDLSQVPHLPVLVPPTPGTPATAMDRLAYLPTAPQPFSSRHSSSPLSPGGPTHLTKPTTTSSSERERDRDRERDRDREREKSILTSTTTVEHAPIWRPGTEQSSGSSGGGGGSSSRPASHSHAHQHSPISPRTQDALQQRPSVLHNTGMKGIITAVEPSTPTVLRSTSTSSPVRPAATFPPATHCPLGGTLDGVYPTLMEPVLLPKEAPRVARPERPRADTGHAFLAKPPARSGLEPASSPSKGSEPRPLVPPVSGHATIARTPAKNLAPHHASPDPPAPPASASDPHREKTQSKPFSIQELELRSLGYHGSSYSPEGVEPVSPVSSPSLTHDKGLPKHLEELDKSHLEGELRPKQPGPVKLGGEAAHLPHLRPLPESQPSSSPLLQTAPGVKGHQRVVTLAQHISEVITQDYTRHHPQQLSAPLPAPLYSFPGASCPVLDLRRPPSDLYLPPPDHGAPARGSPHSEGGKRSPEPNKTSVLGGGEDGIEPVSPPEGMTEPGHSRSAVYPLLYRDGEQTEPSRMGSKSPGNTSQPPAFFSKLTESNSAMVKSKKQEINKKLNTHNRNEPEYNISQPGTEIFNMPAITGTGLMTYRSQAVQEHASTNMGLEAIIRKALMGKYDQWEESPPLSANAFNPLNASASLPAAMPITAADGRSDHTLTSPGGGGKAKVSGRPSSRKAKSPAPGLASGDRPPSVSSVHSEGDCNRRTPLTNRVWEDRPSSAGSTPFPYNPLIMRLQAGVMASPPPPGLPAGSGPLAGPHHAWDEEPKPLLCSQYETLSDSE

With COc1ccccc1Oc1ccc(-c2cnc3ccccc3n2)cc1[N+](=O)[O-] the EC50 [1] was > 35.4 µM (not active), the IC50 (HEK293) was > 35.4 µM (not active) and the EC50 [2] was > 35.4 µM (not active).
In the case of O=Cc1cn(Cc2ccccc2F)c2ccccc12, the EC50 [3] is reported as 14 µM (active), the EC50 [4] is reported as 3.85 µM (active) and the EC50 (cells) is reported as 1.75 µM (active). The EC50 [5] was < 0.1 µM (active) and the EC50 [6] was 2.11 µM (active).
With CSc1nc(O)c(C#N)c(-c2ccccc2)n1 the IC50 [7] was > 39.8 µM (not active) and the IC50 [8] was 5.34 µM (active).
For Cn1cc(C(=O)CCl)c2ccccc21, the IC50 [9] was > 50 µM (not active), the IC50 [10] was > 50 µM (not active) and the AC50 [11] was 8.48 µM (active).
For Cc1cc(Cl)ccc1N=C(S)Nc1ccccn1, the EC50 [12] was > 49.7 µM (not active) and the EC50 (Wee1-like protein kinase) was > 49.7 µM (not active).

— ChEMBL document CHEMBL1201862, “PubChem BioAssay data set” (2004)
